The values below come from patent US4238491A (priority 1977, dated 1980).

Counter-ions that a name gives are not always drawn. Like-named read-outs stand apart in the source and are kept apart here.

In data set [1] the test system is blood pressure of SHR. The data set is described as follows: Antihypertensive effect by single administration, SHR, direct cannulation. The conditions noted are these: for Rate of Effects (relative to MR): from DB20; for ED (20% blood pressure decrease): Rattus norvegicus, read-out: DB20 (20% blood pressure descending dose). Format: in vivo, rat (spontaneously hypertensive rats. As for the experimental part:
The effect was examined through both direct and modified tail-cuff methods using male SHRs aged 25 to 30 weeks and weighing about 300 g.
In the direct cannulation method, polyethylene cannules were inserted in femoral arteries of the conscious unanesthesized SHRs under back-fixation,and MR solution was administered in an amount of 0.1 mg/100 g of weight for venous injection, and 1 ml/100 g of weight for oral administration. Changes in the blood pressure over 6 hours were measured with a multi-purpose polygraph RM-85 made by NIHON KODEN Co., Ltd. MR was dissolved in 0.9% NaCl aqueous solution with 1 N-HCl, and the solution was neutralized for use.

Data set [2] is described as follows: in vivo. The format is in vivo, rat (SD (SPF)). Conditions: rat, in vivo; oral sub-acute, rats; read-out: ineffective dose. As for the experimental part:
All the rats were observed daily and general symptoms noted. Weight was measured daily, average food-intake once every three days, and average water-intake once every two days.

The conditions of data set [3]: converted from FIG. 15 data to 20 mg/kg basis.
Protocol: Blood was drawn from branchial vein of dogs, vein of ear of rabbits and carotic artery of rats after slaughter. Urine was collected with urine bladder catheter for rabbits and metabolic cages for rats. Gathering bile was performed with biliary duct cannulation without anesthesia.
The test system of data set [4] is rats. Conditions: in connection with RCN; cited from earlier work.
For data set [5], the system named is hypertension. Conditions: cited from earlier work; for antihypertensive effect / side effects: remedies for hypertension.

Take `COc1cc2[nH]c3c(c2cc1OC)CCN1C[C@H]2[C@H](C)OC=C(C(=O)OCCN(C)C)[C@H]2C[C@H]31.Cl.Cl` [Dimethylaminoethyl reserpilinate dihydrochloride]: the “DB20 (20% blood pressure descending dose)” value in data set [1] (I.V.) turned out to be 415.7 mg/kg; in data set [1] (P.O.), 625.2 mg/kg. Also, the results for the “Rate of Effects (relative to MR)” value in data set [1] (I.V.) and in data set [1] (P.O.) were 0.01 and 0.02, respectively.
As to `C[N+](C)(C)CCCCCC[N+](C)(C)C` [Hexamethonium chloride], the “Rate of Effects (relative to MR)” value in data set [1] (I.V.) stood at 0.08; in data set [1] (P.O.), 0.04. Besides, the ED (20% blood pressure decrease) in data set [1] (iv) turned out to be 39.7 mg/kg; in data set [1] (po) it was 320 mg/kg.
For `NNc1nncc2ccccc12` [Hydralazine hydrochloride] the same measures were 11.7, 1.85, 0.3 mg/kg and 6.4 mg/kg.
With `C[C@](N)(Cc1ccc(O)c(O)c1)C(=O)O` [L-alpha-methyl-dopa], the “Rate of Effects (relative to MR)” value in data set [1] (I.V.) and in data set [1] (P.O.) was 0.01 in each case. Moreover, the ED (20% blood pressure decrease) stood at 303 mg/kg in data set [1] (iv, I.V.) and 1740 mg/kg in data set [1] (po, P.O.).
As to `COC(=O)[C@H]1[C@H]2C[C@@H]3c4[nH]c5cc(OC)ccc5c4CCN3C[C@H]2C[C@@H](OC(=O)/C=C/c2cc(OC)c(OC)c(OC)c2)[C@@H]1OC` [RCN, Rescinnamin], the ED (20% blood pressure decrease) in data set [1] (iv) was determined as 1.3 mg/kg; in data set [1] (po), 9.7 mg/kg. In addition, in data set [2], the NOAEL turned out to be 6 mg/kg. Besides, the “Area under the Curve of MR Content in Serum” value in data set [3] is on record as 20.2. In addition, the “pathological changes in adrenal and liver” value in data set [4] is “not reported”. In data set [5], the antihypertensive effect result is “prolonged antihypertensive effect”. Besides, the side effects entry in data set [5] was “uneasiness due to central nervous system depression, depressed state and loss of vitality”. The “pathological change of stomach mucous” value in data set [5] (when RCN is used) is reported as “often occurs”.
In the case of `COC(=O)[C@H]1[C@H]2C[C@@H]3c4[nH]c5cc(OC)ccc5c4CCN3C[C@H]2C[C@@H](OC(=O)c2cc(OC)c(OC)c(OC)c2)[C@@H]1OC` [RSP, Reserpine], the “Rate of Effects (relative to MR)” value in data set [1] (I.V.) amounted to 17.7; in data set [1] (P.O.), 3.11. Moreover, the values for the ED (20% blood pressure decrease) in data set [1] (iv) and in data set [1] (po) were 0.2 mg/kg and 3.8 mg/kg, respectively. Moreover, the antihypertensive effect result in data set [5] was “prolonged antihypertensive effect”. For the same molecule, the side effects result in data set [5] was “uneasiness due to central nervous system depression, depressed state and loss of vitality”.
As to `NS(=O)(=O)c1cc2c(cc1Cl)NC(C(Cl)Cl)NS2(=O)=O` (stereo not shown) [Trichlormethiazide], the “Rate of Effects (relative to MR)” value in data set [1] (I.V.) worked out at 0.05; in data set [1] (P.O.) it was 0.07. The ED (20% blood pressure decrease) in data set [1] (iv, I.V.) worked out at 79.8 mg/kg; in data set [1] (po, P.O.), 150 mg/kg.
